Assay results reported in patent US12558345B2, “CHK1/2 inhibitors for use in the treatment of neuroblastomas and/or soft tissue sarcomas” (Eli Lilly and Company, priority 2015, dated 2026).
Structures can show the parent of a compound that is named as a salt.

What was measured:
[1] = system: HT-29 colon tumor xenograft; test: Human Tumor Xenograft Models, with gemcitabine: HT-29; assay type: in vivo, mouse
Experimental: The ability of CHK1 inhibitors to effect tumor killing can be determined in vivo using the Calu-6 lung and HT-29 colon tumor xenograft efficacy models. Calu-6 lung cancer cells (ATCC) are cultured in growth media (MEM w/ Earle's salts (Invitrogen) with L-glutamine (Gibco™) supplemented with 10% (v/v) heat inactivated FBS (Gibco™), 1×MEM non-essential amino acids (Gibco™), 1×sodium pyruvate (Gibco™)) and HT-29 colon cancer cells (ATCC) are cultured in growth media, (McCoy's 5A medium (Gibco™) supplemented with 10% FBS (Gibco™)) and expanded. Cells are harvested and washed twice with phosphate buffered saline and 5×10^6 cells (HT-29) or 1×10^6 cells (Calu-6) in growth media (without serum) are mixed with equal volume of BD Matrigel™ matrix (BD Bioscience, Franklin, NJ), then injected subcutaneously into the flank of nude mice (CD-1 nu/nu, from Charles River Labs, Wilmington, MA). At about day 16 after implant (150-200 mm^3), gemcitabine is formulated fresh in saline daily and administered to animals by intraperitoneal route at 60 mg/kg dose. […] Tumor response is determined by tumor volume measurement performed twice a week during the course of treatment. Tumor growth inhibition (TGI) is calculated as the percent reduction in mean tumor size of a compound treated group from the mean tumor size of the vehicle-treated control group.

Calu-6 lung xenograft = test: Single Agent Efficacy Dosing, Calu-6 xenograft; assay type: in vivo, mouse; settings: Calu-6, 15 mg/kg SC, BID×5 rest 2 days ×3 cycles
Experimental: The ability of CHK1 inhibitors to effect tumor killing can be determined in vivo using the Calu-6 lung xenograft efficacy model. Calu-6 lung cancer cells (ATCC) are cultured as described above. Cells are harvested and washed twice with phosphate buffered saline and 1×10^6 cells (Calu-6) in growth media (without serum) are mixed with equal volume of BD Matrigel™ matrix (BD Bioscience, Franklin, NJ), then injected subcutaneously into the flank of nude mice (CD-1 nu/nu, from Charles River Labs, Wilmington, MA).

[2] = system: CTG-0142 EWS patient-derived xenograft; test: Xenograft Tumor Model CTG-0142; assay type: in vivo, mouse; settings: comparator day 28, p-value 0.376
Experimental: (§1) The efficacy of 5-(5-(2-(3-aminopropoxy)-6-methoxyphenyl)-1H-pyrazol-3-ylamino)pyrazine-2-carbonitrile methanesulfonic acid monohydrate is measurable in vivo in mouse models of neuroblastomas and human pediatric and adult sarcomas. 5-(5-(2-(3-Aminopropoxy)-6-methoxyphenyl)-1H-pyrazol-3-ylamino)pyrazine-2-carbonitrile methanesulfonic acid monohydrate (10 mg/kg) can be administered subcutaneously to nude mice bearing either cell-derived xenografts (CDX) or patient-derived xenografts (PDX) of human rhabdomyosarcoma, desmoplastic small round cell tumor (DSRCT), osteosarcoma, and Ewing's sarcoma using a 3 day on, 4 day off b.i.d. dosing schedule. Tumor volume and body weight can be measured two times per week. Tumor-specific parameters can be evaluated by immumohistochemistry. […]
(§2) For all “ST” models (encompassing RMS and LMS), patient-derived xenografts are established from viable human tumor tissue and are serially passaged in animals a limited number of times to maintain tumor heterogeneity. […] Tumor response is determined by tumor volume measurement performed twice per week during the course of treatment.

[3] = system: CTG-0242 OS patient-derived xenograft; test: Xenograft Tumor Model CTG-0242; assay type: in vivo, mouse; settings: comparator day 28, p-value 0.012
Experimental: as §1, §2

[4] = system: CTG-0785 EWS patient-derived xenograft; test: Xenograft Tumor Model CTG-0785; assay type: in vivo, mouse; settings: comparator day 18, p-value 0.052
Experimental: as §1, §2

[5] = system: ST550 LMS patient-derived xenograft; test: Xenograft Tumor Model ST550; assay type: in vivo, mouse; settings: comparator day 31, p-value 0.712
Experimental: (§3) For all “ST” models (encompassing RMS and LMS), patient-derived xenografts are established from viable human tumor tissue and are serially passaged in animals a limited number of times to maintain tumor heterogeneity. In subcutaneous models, athymic nude mice (Crl:NU(NCr)-Foxn1nu) or CB-17 SCID mice (CRL-CB17/Icr-Prkdcscid/IcrIcoCrl) are injected or implanted unilaterally into the flank with tumor fragments harvested from host animals, each implanted from a specific passage lot. For all studies, measure tumor growth and body weight twice per week beginning on the seventh day after implantation. When tumor size reaches 150-300 mm^3, randomize animals and group into groups of 4-7 animals. Prepare test compound in an appropriate vehicle (e.g. vehicle can be 20% Captisol® in sterile water) and administer subcutaneously for three consecutive days followed by a four day dosing holiday and repeat for a minimum of four weeks. Tumor response is determined by tumor volume measurement performed twice per week during the course of treatment.

[6] = system: Leiomyosarcoma xenograft models; test: Sarcoma xenograft models by tumor subtype: Leiomyosarcoma; assay type: in vivo, mouse
Source text: (§4) For all “CTG” models (encompassing human RMS, DSRCT, EWS, OS and LMS patient-derived xenograft models), female NCr nude spontaneous mutant mice (5-8 weeks old, Taconic) are implanted unilaterally in the flank region with tumor fragments harvested from donor animals, each implanted from a specific passage lot.
as §3

[7] = system: Liposarcoma xenograft models; test: Sarcoma xenograft models by tumor subtype: Liposarcoma; assay type: in vivo, mouse; settings: age of patients 36-74 years
adult sarcoma models = test: Adult sarcoma models evaluated in vivo (panel); set-up: species or system mouse
Source text: as §4, §3

[8] = Leiomyosarcoma, age of patients 48-64 years

| SMILES | increase in tumor growth inhibition over gemcitabine alone ([1]; HT-29, combination with gemcitabine) | anti-tumor activity ([1]; HT-29, dosed alone and in combination with gemcitabine 60 mg/kg ip, compound iv +24 hours, Q3Dx4) | growth inhibition compared with gemcitabine plus compound combination schedule (Calu-6 lung xenograft) | tumor regression (Calu-6 lung xenograft) | % T/C [2] [%] | % T/C [3] [%] | % T/C [4] [%] | % T/C [5] [%] | Result of Treatment: Partial Response (models) [6, 8] | Result of Treatment: Stable Disease (models) [6, 8] | activity in PDX models ([6]; PDX models of leiomyosarcoma) | Result of Treatment: Progressive Disease (models) [7] | adult sarcoma models sensitive to single agent treatment (models) (adult sarcoma models) | adult sarcoma models sensitive to single agent treatment (percent) (adult sarcoma models) [%] |
| --- | --- | --- | --- | --- | --- | --- | --- | --- | --- | --- | --- | --- | --- | --- |
| COc1cccc(OCCCN)c1-c1cc(Nc2cnc(C#N)cn2)n[nH]1 [Example 2, 5-(5-(2-(3-Aminopropoxy)-6-methoxyphenyl)-1H-pyrazol-3-ylamino)pyrazine-2-carbonitrile dihydrogen chloride salt] | up to a six-fold increase | excellent dose dependent anti-tumor activity | superior growth inhibition | Complete tumor regression is rapid and durable | – | – | – | – | – | – | – | – | – | – |
| COc1cccc(OCCCN)c1-c1cc(Nc2cnc(C#N)cn2)n[nH]1 [Example 5, 5-(5-(2-(3-Aminopropoxy)-6-methoxyphenyl)-1H-pyrazol-3-ylamino)pyrazine-2-carbonitrile methanesulfonic acid monohydrate] | – | – | – | – | 66 | 6 | 57 | 94 | 1/5 Partial | Response; 1/5 | active | 7/7 Progressive | 10/12 | 83 |
